# Tests used:
# [1] = Transport of a bioactive molecule through a membrane by fused, multinuclear and iodinated clusters
# From the text: Also fused boron clusters and multinuclear boron clusters were successfully used as transporters for a bioactive molecule through a membrane.
# [2] = HPTS/DPX vesicle transport assay; assay type: biochemical; settings: for transport of positive, zwitterionic and neutral cargo into vesicles: cargo: singly charged, neutral biomolecules, vitamins, antibiotics, neuromuscular blocking agents, proteins; for transport of heptaarginine across the lipid membrane of the vesicles: cargo heptaarginine (H-Trp-Arg7-OH), HPTS fluorescence increase
# From the text: A: Heptaarginine, B: Heptalysine, C: Protamine, D: Acethylcholine, E: Pancuronium, F: Vecuronium, G: Vitamin B1, H: Ranitidin, I: Tryptophan, J: Ampicilin, K: Phenylalanine, L: Phalloidin, M: Glutamic acid, and N: Bovine albumin. +: positively charged cargos, +/−: zwitterionic cargos, ©: neutral cargo, and −: negatively charged cargos;
# A hydrophilic heptaarginine peptide (H-Trp-Arg7-OH) which is unable to spontaneously translocate across neutral phosphocholine lipid vesicles in the absence of counterion activators was used as prototype for cationic cell-penetrating molecular scaffolds (peptides and polymers). The capability of boron clusters to activate the transport of the heptaarginine peptide (H-Trp-Arg7-OH) was investigated first in large unilamellar vesicles (LUVs). The HPTS/DPX assay, that uses 8-hydroxypyrene-1,3,6-trisulfonate and p-xylene-bis-pyridinium, was implemented to monitor peptide-transport activation by the clusters. This assay not only reports on the potential of a synthetic carrier to transport the positively charged peptide into a vesicle, but also to shuttle the cationic quencher DPX to the outside.
# Transport can accordingly be monitored, and the activator efficacy quantified, by a time-resolved fluorescence increase at different concentrations of the carrier.
# HTPS emission was monitored during the sequential addition of the globular cluster carrier and peptide cargo; a strong detergent (Triton® X-100) was added at the end to affect vesicle lysis and complete dye release that allowed a normalization of the fluorescence intensity data.
# This was validated in vesicle transport experiments, which included targets which have not been previously accessible to other non-covalent synthetic carriers or counterion activators. The targets included singly charged, zwitterionic, and neutral biomolecules (such as acetylcholine and amino acids), vitamins, antibiotics, neuromuscular blocking agents and proteins.
# HeLa cells = assay: Tm-Arg8 endosomal escape by confocal fluorescence microscopy; assay type: cell-based
# Protocol: Cells were incubated with 1 μM Tm-Arg8 and 0 (left picture) or 10 μM clusters diluted in HKR buffer for 1 hour, washed twice with HKR buffer, and imaged by confocal fluorescence microscopy; Images show TAMRA fluorescence (light gray) and the brightfield in the inset pictures; scale bars: 50 μm;
# The potential of boron clusters to trigger the endosomal escape into live cells was first studied for oligocationic peptides as cargo. As a prototype, the octaarginine peptide labelled with carboxytetramethylrhodamine (Tm-Arg8) was selected, which at low concentrations (i.e., 1 μM) enters cells by endocytosis and remains trapped in the intracellular compartments. The cytosolic delivery of Tm-Arg8 was followed by confocal microscopy in the presence and absence of superchaotropic boron clusters (FIG. 4).
# [3] = tested on: Escherichia coli Top10 strain; assay: E. coli Top10 viability with kanamycin A and B1; assay type: cell-based
# Protocol: Bar graphs (left) and time course (right) of E. coli Top10 viability in the presence of different concentrations of kanamycin monosulfate (0, 2500, 3000 or 3500 nM) and B1 (0, 500, 750 or 1000 μM) in LB broth at 37° C.; error bars (shown on the right) refer to the standard deviation (n=3; V (%): E. coli Top10 viability, [KA] […]
# For kanamycin A, effective passage through the cell membrane into the cytosol is essential to reach its intracellular targets. […] In the absence of the cluster, E. coli retained viability (60%), which disappeared almost completely (<5%) in the presence of the antibiotics carrier (FIG. 5). The enhanced antibiotic activity is attributed to the boron cluster's carrier potential as all other factors were left the same.
# mammalian cell = assay: Mammalian cell survival; assay type: cell-based; settings: 500 μM
# Cereblon E3 Ligase = biological target: T1, Cereblon E3 Ligase (Homo sapiens, UniProt Q96SW2); assay: NanoBRET TE Intracellular E3 Ligase Assay (CRBN target engagement); assay type: cell-based; settings: dBET1 in presence vs absence of B1 (0, 25, 50 μM)
# T1 construct: expressed in transfected cells
# Protocol: Crossbars and error bars indicate mean and standard deviation; values obtained in each experimental value are represented with a different shape;
# For dBET1, a PROTAC with known low permeability, it was shown that B1 enhances its activity. The internalization of this PROTAC in the absence and presence of the cluster was assessed by its ability to bind to the Cereblon E3 Ligase by using a NanoBRET™ TE Intracellular E3 Ligase Assay. Enhanced uptake of dBET1 was observed (factor 2-3 decrease in IC50 value).
# T1 sequence (Q96SW2 whole entry): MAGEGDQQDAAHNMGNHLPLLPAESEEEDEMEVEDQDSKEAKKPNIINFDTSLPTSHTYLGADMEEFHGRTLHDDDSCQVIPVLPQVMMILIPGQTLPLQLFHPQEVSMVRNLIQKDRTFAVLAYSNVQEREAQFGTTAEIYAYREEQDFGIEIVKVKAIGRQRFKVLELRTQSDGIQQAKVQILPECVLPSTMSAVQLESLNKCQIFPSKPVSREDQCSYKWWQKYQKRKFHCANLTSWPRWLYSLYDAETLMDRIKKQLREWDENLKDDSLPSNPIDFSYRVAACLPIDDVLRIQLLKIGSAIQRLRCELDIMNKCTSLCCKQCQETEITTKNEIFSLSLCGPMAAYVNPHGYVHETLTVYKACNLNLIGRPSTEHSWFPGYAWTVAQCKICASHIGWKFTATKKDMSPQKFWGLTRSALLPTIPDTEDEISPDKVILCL
molecule,measurement,setting,value
"(8-I-1,2-C2B9H10)-(1′2′-C2B9H11)-3,3′-Co^− [CS4]",use as transporter / active cluster for a bioactive molecule through a membrane,[1],successfully used as active clusters
B10Br10^2− [B4],"transport of positive, zwitterionic and neutral cargo into vesicles",[2],same trends were reproduced in transport efficiency
pyrene butyrate [reference compound],fluorescence response (transport) of zwitterionic or neutral analytes,"[2]; analytes acetylcholine, tryptophan, ampicillin, vecuronium and phalloidin, comparison activator","None of the selected, zwitterionic or neutral, analytes (acetylcholine, tryptophan, ampicillin, vecuronium and phalloidin) showed any fluorescence response"
"(1,7-C2B9H11)2-2,2′-Co^− [CS2]",use as transporter / active cluster for a bioactive molecule through a membrane,[1],successfully used as active clusters
B12H11NBD^− [B3],transport of heptaarginine across the lipid membrane of the vesicles,[2],efficient transport
same,Tm-Arg8 peptide endosomal escape (diffuse cytosolic fluorescence),"HeLa cells; 1 μM Tm-Arg8, 10 μM cluster, HKR buffer, 1 hour",excellent peptide endosomal escape
same,peptide and cluster colocalization,HeLa cells; fluorescent cluster with Tm-Arg8,significant peptide and cluster colocalization
NC[C@H]1O[C@H](O[C@H]2[C@H](O)[C@@H](O[C@H]3O[C@H](CO)[C@@H](O)[C@H](N)[C@H]3O)[C@H](N)C[C@@H]2N)[C@H](O)[C@@H](O)[C@@H]1O [kanamycin A],viability at 3.5 µg/mL,"[3]; Escherichia coli, TOP10STRAIN, read-out: E. coli viability",60%
same,antibiotic effectiveness in bacteria,[3]; antibiotic transported by boron cluster,increased its effectiveness
"(1,2-C2B9HO2-3,3′-Co^− [CS1]",use as transporter / active cluster for a bioactive molecule through a membrane,[1],successfully used as active clusters
"8,8′-I2-(1,2-C2B9H10)2-3,3′-Co^− [CS6]",use as transporter / active cluster for a bioactive molecule through a membrane,[1],successfully used as active clusters
B12Br12^2−,compatibility with mammalian cell survival,mammalian cell,compatible with mammalian cell survival
same,E. coli viability,[3]; kanamycin A 3.5 μg/ml in the presence of B1 500 μM,< 5%
same,transport of negatively charged cargo into vesicles,[2]; cargo glutamate and albumin,with the exception of the negatively charged molecules (glutamate and albumin)
same,"transport of positive, zwitterionic and neutral cargo into vesicles",[2],transported all types of cargo (positive and neutral)
same,decrease in IC50 value of dBET1,Cereblon E3 Ligase,2-3 factor
B12Br11—O-n-C3H7^2− [B2],transport of heptaarginine across the lipid membrane of the vesicles,[2],little influence

# — patent US20230293699A1, “USE OF A BORON CLUSTER AS TRANSMEMBRANE CARRIER” (CONSTRUCTOR UNIVERSITY BREMEN GGMBH, priority 2020, published 2023)
